Data: patent US6472348B1, “Pyridone derivatives and herbicides” (Kumiai Chemical Industry Co., Ltd., priority 1996, dated 2002)

Columns and labels:
Digitaria ciliaris (Di) = experiment: Test Example 2: herbicidal effects by upland field soil treatment; format: in vivo; settings: 100 g of the active ingredient per 10 ares;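 further: grade of growth control; 5 = at least 90%; 4 = 70 to 90%; 3 = 50 to 70%; 2 = 30 to 50%; 1 = 10 to 30%; 0 = under 10%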
Text: (§1) (Test on Herbicidal Effects by Upland Field Soil Treatment)

barnyardgrass (Ec) [1] = experiment: as above; format: in vivo; settings: 100 g of the active ingredient per 10 ares
Text: as §1

[2] = test system: common lambsquarters (Ch); experiment: as above; format: in vivo; settings: 100 g of the active ingredient per 10 ares
Text: as §1

pale smartweed (Po) [3] = experiment: as above; format: in vivo; settings: 100 g of the active ingredient per 10 ares
Text: as §1

rice flatsedge (Ci) [4] = experiment: as above; format: in vivo; settings: 100 g of the active ingredient per 10 ares
Text: as §1

slender amaranth (Am) [5] = experiment: as above; format: in vivo; settings: 100 g of the active ingredient per 10 ares
Text: as §1

Diaitaria ciliaris (Di) = experiment: Test Example 3: herbicidal effects by upland field foliage treatment; format: in vivo; design: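 grade of growth control; 5 = at least 90%; 4 = 70 to 90%; 3 = 50 to 70%; 2 = 30 to 50%; 1 = 10 to 30%; 0 = under 10%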
How it was run: (§2)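 Using plants cultured for 2 weeks in a greenhouse from seed sown in soil-covered sand (pots 120 cm^2), the compounds were applied to foliage, and weed control was graded by standard criteria 14 days thereafter.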

barnyardgrass (Ec) [6] = experiment: as above; format: in vivo; design: scale not given here
How it was run: as §2

[7] = test system: common lambsquarters (Ch); experiment: as above; format: in vivo; design: scale not given here
How it was run: as §2

pale smartweed (Po) [8] = experiment: as above; format: in vivo; design: scale not given here
How it was run: as §2

rice flatsedge (Ci) [9] = experiment: as above; format: in vivo; design: scale not given here
How it was run: as §2

slender amaranth (Am) [10] = experiment: as above; format: in vivo; design: scale not given here
How it was run: as §2

wheat (Tr) [11] = experiment: Test Example 9: crop plant selectivity by upland field foliage treatment (wheat), phytotoxicity; settings: dose 1.6 g ai/10a, 14th day after treatment;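 further: grade of crop injury; 5 = at least 90%; 4 = 70 to 90%; 3 = 50 to 70%; 2 = 30 to 50%; 1 = 10 to 30%; 0 = under 10%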
Description: (§3) (Test on Crop Plant Selectivity by Upland Field Foliage Treatment)
(§4) In a plastic pot (surface area: 600 cm^2) filled with sand, wheat (Tr), pale smartweed (Po), slender amaranth (Am), common lambsquarters (Ch) and China jute (Ab) were sown and cultured in a green house for 2 weeks. […] The plants were then cultured in a green house, and the evaluation of the herbicidal effects and phytotoxicity was conducted on the 14th day after the treatment in accordance with the standards as identified in Table 47.

China jute (Ab) [12] = experiment: Test Example 9: crop plant selectivity by upland field foliage treatment (wheat), herbicidal effects; format: in vivo; design: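 grade of growth control; 5 = at least 90%; 4 = 70 to 90%; 3 = 50 to 70%; 2 = 30 to 50%; 1 = 10 to 30%; 0 = under 10%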; settings: dose 1.6 g ai/10a, 14th day after treatment
Description: as §3, §4

[13] = test system: common lambsquarters (Ch); experiment: as above; format: in vivo; design: scale not given here; settings: dose 1.6 g ai/10a, 14th day after treatment
Description: as §3, §4

pale smartweed (Po) [14] = experiment: as above; format: in vivo; design: scale not given here; settings: dose 1.6 g ai/10a, 14th day after treatment
Description: as §3, §4

slender amaranth (Am) [15] = experiment: as above; format: in vivo; design: scale not given here; settings: dose 1.6 g ai/10a, 14th day after treatment
Description: as §3, §4

barnyardgrass (Ec) [16] = experiment: Test Example 1: herbicidal effects by paddy field soil treatment; format: in vivo; settings: 100 g of the active ingredient per 10 ares, 21st day after the application, index 0-5 of Table 47;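 further: grade of growth control; 5 = at least 90%; 4 = 70 to 90%; 3 = 50 to 70%; 2 = 30 to 50%; 1 = 10 to 30%; 0 = under 10%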
How it was run: (§5)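 Scoring of herbicidal effect came 21 days after application of 100 g active ingredient per 10 ares to flooded (3 cm) paddy-soil pots sown with barnyardgrass, monochoria and bulrush, kept in a greenhouse.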

bulrush (Sc) = experiment: as above; format: in vivo; settings: 100 g of the active ingredient per 10 ares, 21st day after the application, index 0-5 of Table 47;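 further: grade of growth control; 5 = at least 90%; 4 = 70 to 90%; 3 = 50 to 70%; 2 = 30 to 50%; 1 = 10 to 30%; 0 = under 10%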
How it was run: as §5

monochoria (Mo) = experiment: as above; format: in vivo; settings: 100 g of the active ingredient per 10 ares, 21st day after the application, index 0-5 of Table 47
How it was run: as §5

cotton (Go) = experiment: Test Example 4: crop plant selectivity by upland field soil treatment (cotton), phytotoxicity; format: in vivo; design: scale not given here; settings: evaluated 21st day after application
Description: (§6) (Test on Crop Plant Selectivity by Upland Field Soil Treatment)
(§7) In a plastic pot (surface area: 600 cm^2) filled with sand, cotton (Go), Diaitaria ciliaris (Di), green foxtail (Se), pale smartweed (Po), slender amaranth (Am), common lambsquarters (Ch) and China jute (Ab) were sown and covered with soil. […] The plants were then cultured in a green house, and the evaluation of the herbicidal effects and phytotoxicity was conducted on the 21st day after the application in accordance with the standards as identified in Table 47. Symbol—represents “not tested”.

China jute (Ab) [17] = experiment: Test Example 4: crop plant selectivity by upland field soil treatment (cotton), herbicidal effects; format: in vivo; design: scale not given here; settings: evaluated 21st day after application
Description: as §6, §7

[18] = test system: common lambsquarters (Ch); experiment: as above; format: in vivo; design: scale not given here; settings: evaluated 21st day after application
Description: as §6, §7

green foxtail (Se) [19] = experiment: as above; format: in vivo; design: scale not given here; settings: evaluated 21st day after application
Description: as §6, §7

pale smartweed (Po) [20] = experiment: as above; format: in vivo; design: scale not given here; settings: evaluated 21st day after application
Description: as §6, §7

slender amaranth (Am) [21] = experiment: as above; format: in vivo; design: scale not given here; settings: evaluated 21st day after application
Description: as §6, §7

wheat (Tr) [22] = experiment: Test Example 5: crop plant selectivity by upland field soil treatment (wheat), phytotoxicity; format: in vivo; design: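 grade of crop injury; 5 = at least 90%; 4 = 70 to 90%; 3 = 50 to 70%; 2 = 30 to 50%; 1 = 10 to 30%; 0 = under 10%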; settings: dose 1.6 g ai/10a, 21st day after application
Description: as §6
(§8) In a plastic pot (surface area: 600 cm^2) filled with sand, wheat (Tr), Diaitaria ciliaris (Di), green foxtail (Se), pale smartweed (Po), slender amaranth (Am), common lambsquarters (Ch) and China jute (Ab) were sown and covered with soil. […] The plants were then cultured in a green house, and the evaluation of the herbicidal effects and phytotoxicity was conducted on the 21st day after the application in accordance with the standards as identified in Table 47. Symbol—represents “not tested”.

China jute (Ab) [23] = experiment: Test Example 5: crop plant selectivity by upland field soil treatment (wheat), herbicidal effects; format: in vivo; design: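 grade of growth control; 5 = at least 90%; 4 = 70 to 90%; 3 = 50 to 70%; 2 = 30 to 50%; 1 = 10 to 30%; 0 = under 10%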; settings: dose 1.6 g ai/10a, 21st day after application
Description: as §6, §8

[24] = test system: common lambsquarters (Ch); experiment: as above; format: in vivo; design: scale not given here; settings: dose 1.6 g ai/10a, 21st day after application
Description: as §6, §8

green foxtail (Se) [25] = experiment: as above; format: in vivo; design: scale not given here; settings: dose 1.6 g ai/10a, 21st day after application
Description: as §6, §8

pale smartweed (Po) [26] = experiment: as above; format: in vivo; design: scale not given here; settings: dose 1.6 g ai/10a, 21st day after application
Description: as §6, §8

slender amaranth (Am) [27] = experiment: as above; format: in vivo; design: scale not given here; settings: dose 1.6 g ai/10a, 21st day after application
Description: as §6, §8

[28] = evaluated on the 21st day after application
[29] = 100 g active ingredient per 10 ares, evaluated 14th day after treatment
[30] = 21st day after the application, index 0-5 of Table 47
[31] = 100 g of the active ingredient per 10 ares, evaluated on the 14th day after treatment

Row | Compound | Phytotoxicity Tr (wheat (Tr) [11]) | Herbicidal effects Ab (China jute (Ab) [12]) | Herbicidal effects Ch [13] | Herbicidal effects Po (pale smartweed (Po) [14]) | Herbicidal effects Am (slender amaranth (Am) [15]) | Herbicidal effects Ec (barnyardgrass (Ec) [16]) | Herbicidal effects Sc (bulrush (Sc)) | Herbicidal effects Mo (monochoria (Mo)) | Herbicidal effects Di (Digitaria ciliaris (Di); [30]) | Herbicidal effects Ec (barnyardgrass (Ec) [1]; [30]) | Herbicidal effects Ch [2, 30] | Herbicidal effects Po (pale smartweed (Po) [3]; [30]) | Herbicidal effects Ci (rice flatsedge (Ci) [4]; [30]) | Herbicidal effects Am (slender amaranth (Am) [5]; [30]) | Herbicidal effects Di (Diaitaria ciliaris (Di); [31]) | Herbicidal effects Ec (barnyardgrass (Ec) [6]; [31]) | Herbicidal effects Ch [7, 31] | Herbicidal effects Po (pale smartweed (Po) [8]; [31]) | Herbicidal effects Ci (rice flatsedge (Ci) [9]; [31]) | Herbicidal effects Am (slender amaranth (Am) [10]; [31]) | also measured
1 | CCOC(C)c1cc2c(-c3ccc(C(F)(F)F)n(C)c3=O)c(F)cc(Cl)c2o1 (centres unmarked) [Compound 4-36] | 2 | 5 | 5 | 5 | 5 | – | – | – | – | – | – | – | – | – | – | – | – | – | – | – | Herbicidal effects Di (Digitaria ciliaris (Di); [28]): 5; Herbicidal effects Ec (barnyardgrass (Ec) [1]; [28]): 5; Herbicidal effects Ch [2, 28]: 5; Herbicidal effects Po (pale smartweed (Po) [3]; [28]): 5; Herbicidal effects Ci (rice flatsedge (Ci) [4]; [28]): 5; Herbicidal effects Am (slender amaranth (Am) [5]; [28]): 5; Herbicidal effects Di (Diaitaria ciliaris (Di); [29]): 5; Herbicidal effects Ec (barnyardgrass (Ec) [6]; [29]): 5; Herbicidal effects Ch [7, 29]: 5; Herbicidal effects Po (pale smartweed (Po) [8]; [29]): 5; Herbicidal effects Ci (rice flatsedge (Ci) [9]; [29]): 5; Herbicidal effects Am (slender amaranth (Am) [10]; [29]): 5
2 | CCCCCOC(=O)COc1cc(-c2ccc(C(F)(F)F)n(C)c2=O)c(F)cc1Cl [1-20] | 2 | 5 | 5 | 5 | 5 | 5 | 5 | 5 | 5 | 5 | 5 | 5 | 5 | 5 | 5 | 5 | 5 | 5 | 5 | 5 | –
3 | CCn1c(=O)sc2cc(F)c(-c3ccc(C(F)(F)F)n(C)c3=O)cc21 [Compound 3-7] | 2 | 5 | 5 | 5 | 5 | 5 | 5 | 5 | – | – | – | – | – | – | – | – | – | – | – | – | Herbicidal effects Di (Digitaria ciliaris (Di); [28]): 5; Herbicidal effects Ec (barnyardgrass (Ec) [1]; [28]): 5; Herbicidal effects Ch [2, 28]: 5; Herbicidal effects Po (pale smartweed (Po) [3]; [28]): 5; Herbicidal effects Ci (rice flatsedge (Ci) [4]; [28]): 5; Herbicidal effects Am (slender amaranth (Am) [5]; [28]): 5; Herbicidal effects Di (Diaitaria ciliaris (Di); [29]): 5; Herbicidal effects Ec (barnyardgrass (Ec) [6]; [29]): 5; Herbicidal effects Ch [7, 29]: 5; Herbicidal effects Po (pale smartweed (Po) [8]; [29]): 5; Herbicidal effects Ci (rice flatsedge (Ci) [9]; [29]): 5; Herbicidal effects Am (slender amaranth (Am) [10]; [29]): 5
4 | CCCOC(=O)c1cc(-c2ccc(C(F)(F)F)n(C)c2=O)c(F)cc1Cl [1-158] | 2 | 5 | 5 | 5 | 5 | 5 | 5 | 5 | 5 | 5 | 5 | 5 | 5 | 5 | 5 | 5 | 5 | 5 | 5 | 5 | –
5 | Cn1c(C(F)(F)F)ccc(-c2cc(Oc3ncccn3)c(Cl)cc2F)c1=O [Compound No. 1-27] | – | – | – | – | – | 5 | 5 | 5 | 5 | 5 | 5 | 5 | 5 | 5 | 5 | 5 | 5 | 5 | 5 | 5 | Phytotoxicity Go (cotton (Go); dose 1.6 g ai/10 a): 1; Phytotoxicity Go (cotton (Go); dose 6.3 g ai/10 a): 1; Herbicidal effects Ab (China jute (Ab) [17]; dose 1.6 g ai/10 a): 5; Herbicidal effects Ab (China jute (Ab) [17]; dose 6.3 g ai/10 a): 5; Herbicidal effects Ch ([18]; dose 1.6 g ai/10 a): 5; Herbicidal effects Ch ([18]; dose 6.3 g ai/10 a): 5; Herbicidal effects Se (green foxtail (Se) [19]; dose 1.6 g ai/10 a): 5; Herbicidal effects Se (green foxtail (Se) [19]; dose 6.3 g ai/10 a): 5; Herbicidal effects Po (pale smartweed (Po) [20]; dose 1.6 g ai/10 a): 5; Herbicidal effects Po (pale smartweed (Po) [20]; dose 6.3 g ai/10 a): 5; Herbicidal effects Am (slender amaranth (Am) [21]; dose 1.6 g ai/10 a): 5; Herbicidal effects Am (slender amaranth (Am) [21]; dose 6.3 g ai/10 a): 5; Phytotoxicity Tr (wheat (Tr) [22]): 1; Herbicidal effects Ab (China jute (Ab) [23]): 5; Herbicidal effects Ch [24]: 5; Herbicidal effects Se (green foxtail (Se) [25]): 5; Herbicidal effects Po (pale smartweed (Po) [26]): 5; Herbicidal effects Am (slender amaranth (Am) [27]): 5
